Source: paper PMC12766724, “Synthesis, Anthelmintic Activity, and Mechanism of Action of 5‑Aryl‑1H‑indoles” (Journal of Agricultural and Food Chemistry, 2025)
In brackets after ≈: the same amount, converted by molar mass.

Assays:
Meloidogyne incognita = test system: Meloidogyne incognita; parameters: method as in not printed (reference number lost in b5); settings: ref not printed (reference number lost in b5); cited from earlier work
C. elegans N2 wild-type = experiment: Chitinase assay (reproductive capacity); type: in vivo, Caenorhabditis elegans; settings: Caenorhabditis elegans
Experimental: The effect of compounds on C. elegans was evaluated using the Chitinase assay as we described previously.
After exposing L1 larvae to the compounds for 4 days, we observed the populations under a microscope and measured the Chitinase activity. The larvae produce the enzyme while hatching, and its activity is indicative of the reproductive capacity of the worms. Populations that fail to reproduce due to acute or reproductive toxicity or developmental abnormalities are detected.

[1] = test system: age unsynchronized Ditylenchus destructor; experiment: Motility on WMicrotracker ONE; type: in vivo
Experimental: Populations of D. destructor, kindly provided by Central Institute for Supervising and Testing in Agriculture, the Ministry of Agriculture of the Czech Republic, were maintained according to the protocol previously described here.
(§1) The effect of compounds on motility of H. contortus, D. destructor, and H. schachtii was evaluated using the WMicrotracker ONE platform according to previously published protocols. ,
(§2) The instrument evaluates the activity of small animals by counting how many times infrared light microbeams passing through the wells of a microtiter plate are interrupted. In age-unsynchronized populations of D. destructor, we observed reduced motility of worm populations treated with the halogenated derivatives i-19, i-20, and i-21 (Figures A, S2.1A, S2.2A and Table S2.1). […] The decreases in mean activity counts after 72 h of treatment at 100 μM were 85% and 97%, respectively.

[2] = test system: Heterodera schachtii second-stage juveniles (J2); experiment: Motility on WMicrotracker ONE; type: in vivo
Experimental: H. schachtii was maintained on mustard (Sinapsis alba cv. Albatros) roots grown in vitro on modified KNOP medium according to the previously published protocols. ,
as §1, §2

[3] = test system: Arabidopsis thaliana Col-0; experiment: Germination rate and phytotoxicity; type: in vivo; settings: for average fraction of germinated seeds: 5 DPS; for main root length / plant weight: 10 DPS
Experimental: Wild-type A. thaliana (Col-0 ecotype) seeds were sterilized with 70% EtOH with 0.1% Tween-20 solution (2 × 1 mL) for 10 min, rinsed with 96% EtOH (1 × 1 mL) for 10 min, and kept in the fridge (4 °C in the dark). Seeds were sown on a sterile 1/2 MS medium supplemented with 0.3% DMSO as a mock and test compounds at 5, 10, 50, and 100 μM concentrations in 0.3% DMSO. Plates were kept in long-day light conditions (22 °C/20 °C, 16 h light/8 h dark, 100 μmol m^–2 s^–1). After 5 days, the germination rate was evaluated. After an additional 5 days, primary root growth was measured with ImageJ software (https://imagej.nih.gov/ij/), and seedlings were weighted.

Skin fibroblasts (BJ) = experiment: Resazurin assay, 3-day treatment; type: cell-based, human; settings: BJ
Experimental: Skin fibroblasts (BJ) were obtained from the American Type Culture Collection (ATCC, Manassas, VA), while human keratinocytes (HaCaT) were sourced from the German Cancer Research Center in Heidelberg, Germany. Cells were cultured in a standard DMEM medium from Sigma-Aldrich, supplemented with 10% fetal bovine serum, 2 mM glutamine, 100 U/mL penicillin, and 100 μg/mL streptomycin. Cultures were maintained under standard conditions (37 °C, 5% CO2, humidified atmosphere) and subcultured two to three times per week. We assessed the effect of 3-day compound treatments on cell viability using a resazurin reduction assay measuring mitochondrial activity. Approximately 5,000 cells in 80 μL of culture medium were seeded into the wells of a 96-well plate. Twenty-four hours later, 20 μL of 5-fold concentrated test compound solutions was added and tested across three concentrations prepared through 2-fold serial dilutions. The highest final concentration was 40 μM. After 72 h, we added an 11-fold concentrated resazurin solution to the wells, achieving a final concentration of 0.0125 μM. Fluorescence (ex = 570 nm, em = 610 nm) was measured after 3 h of incubation. […]

[4] = test system: human keratinocytes (HaCaT); experiment: Resazurin assay, 3-day treatment; type: cell-based
Experimental: Skin fibroblasts (BJ) were obtained from the American Type Culture Collection (ATCC, Manassas, VA), while human keratinocytes (HaCaT) were sourced from the German Cancer Research Center in Heidelberg, Germany. Cells were cultured in a standard DMEM medium from Sigma-Aldrich, supplemented with 10% fetal bovine serum, 2 mM glutamine, 100 U/mL penicillin, and 100 μg/mL streptomycin. Cultures were maintained under standard conditions (37 °C, 5% CO2, humidified atmosphere) and subcultured two to three times per week. We assessed the effect of 3-day compound treatments on cell viability using a resazurin reduction assay measuring mitochondrial activity. Approximately 5,000 cells in 80 μL of culture medium were seeded into the wells of a 96-well plate. Twenty-four hours later, 20 μL of 5-fold concentrated test compound solutions was added and tested across three concentrations prepared through 2-fold serial dilutions. The highest final concentration was 40 μM. After 72 h, we added an 11-fold concentrated resazurin solution to the wells, achieving a final concentration of 0.0125 μM. Fluorescence (ex = 570 nm, em = 610 nm) was measured after 3 h of incubation.
The disubstituted derivatives i-25 and i-27 were the most toxic in the set, causing around a 50% decrease in viability of HaCaT cells at 40 μM.

[5] = Visual inspection of DMSO stock solutions; type: physicochemical; settings: 50 mM in DMSO, stored at −20 °C
Experimental: For bioassays, all compounds were dissolved in dimethyl sulfoxide (DMSO) to prepare 50 mM stock solutions. Stock solutions were stored at −20 °C and diluted in water or the appropriate media for each bioassay to achieve the final concentrations indicated below. Solubility was evaluated by visual inspection of stock solutions (assessing clarity or cloudiness) and by microscopic examination of media to detect potential crystal formation. The final DMSO concentrations in the bioassays were kept at levels that had no detectable impact on test organisms, as determined by comparison with water-treated controls (0.1% for cell cultures, 0.2% for nematodes, and 0.3% for Arabidopsis thaliana Col-0).

[6] = 10 µM group, initial (prior to the treatment)
[7] = 50 µM group, initial (prior to the treatment)
[8] = 100 µM group, initial (prior to the treatment)

SMILES: O=C(O)Cc1c[nH]c2ccccc12 [Indole-3-acetic acid]
- LC50 (Meloidogyne incognita): 117 µg/mL (≈ 668 µM)

SMILES: CC(C)c1ccc(-c2ccc3[nH]ccc3c2)cc1 [i-17]
- IC50 (C. elegans N2 wild-type): 7.6 ± 2.3 µM
- average activity counts [1, 6]: 228
- average activity counts ([1]; 10 µM, 48 h): 211
- average activity counts ([1]; 10 µM, 72 h): 212
- average activity counts [1, 7]: 228
- average activity counts ([1]; 50 µM, 48 h): 223
- average activity counts ([1]; 50 µM, 72 h): 224
- average activity counts [1, 8]: 245
- average activity counts ([1]; 100 µM, 48 h): 206
- average activity counts ([1]; 100 µM, 72 h): 212
- average activity counts [2, 6]: 178
- average activity counts ([2]; 10 µM, 48 h): 160
- average activity counts ([2]; 10 µM, 72 h): 139
- average activity counts [2, 7]: 181
- average activity counts ([2]; 50 µM, 48 h): 158
- average activity counts ([2]; 50 µM, 72 h): 158
- average activity counts [2, 8]: 197
- average activity counts ([2]; 100 µM, 48 h): 158
- average activity counts ([2]; 100 µM, 72 h): 122
- average fraction of germinated seeds ([3]; 5 µM): 0.95
- main root length ([3]; 5 µM): 38.83 mm
- plant weight ([3]; 5 µM): 35.01 mg
- average fraction of germinated seeds ([3]; 10 µM): 0.98
- main root length ([3]; 10 µM): 37.53 mm
- plant weight ([3]; 10 µM): 28.28 mg
- average fraction of germinated seeds ([3]; 50 µM): 0.89
- main root length ([3]; 50 µM): 31.19 mm
- plant weight ([3]; 50 µM): 26.18 mg
- Average viability (signal intensity relative to control) (Skin fibroblasts (BJ); 10 µM): 0.9 ± 0.01
- Average viability (signal intensity relative to control) (Skin fibroblasts (BJ); 20 µM): 0.92 ± 0.05
- Average viability (signal intensity relative to control) (Skin fibroblasts (BJ); 40 µM): 0.82 ± 0.07
- Average viability (signal intensity relative to control) ([4]; 10 µM): 0.98 ± 0.01
- Average viability (signal intensity relative to control) ([4]; 20 µM): 0.99 ± 0.01
- Average viability (signal intensity relative to control) ([4]; 40 µM): 0.87 ± 0.04
- stability of stock solutions [5]: precipitation of stock solutions after a single freeze–thaw cycle
